The text below walks through data of ChEMBL document CHEMBL1132827, “New multidrug resistance modulators from Atractylodis Lanceae Rhizoma” (2000).

SMILES strings stand for the structures.

The term Inhibition denotes the relative decrease from the control value, in per cent.

In experiment [1] the test system is KB 3-1. In words: Cytotoxicity (1 ug/mL) was evaluated against KB-3-1 cell lines by observing the effect on growth of cells tested. Type of experiment: functional, Homo sapiens.
The subject of experiment [2] is KB 3-1. In words: Cytotoxicity (10 ug/mL) was evaluated against KB-3-1 cell lines by observing the effect on growth of cells tested. It counts as functional, Homo sapiens.
Experiment [3] concerns KB 3-1. In words: Cytotoxicity (3 ug/mL) was evaluated against KB-3-1 cell lines by observing the effect on growth of cells tested. Type of experiment: functional, Homo sapiens.
Experiment [4] has as its system KB-C2. In words: Inhibition of growth of KB-C2 cells at the dose of 1 ug/mL of compound in presence of 0.1 ug/mL of colchicine.
In experiment [5] the test system is KB-C2. The experiment can be described thus: Inhibition of growth of KB-C2 cells at the dose of 3 ug/mL of compound in presence of 0.1 ug/mL of colchicine.
For experiment [6], the system named is KB-C2. The experiment can be described thus: Inhibition of growth of KB-C2 cells at the dose of 10 ug/mL of compound in presence of 0.1 ug/mL of colchicine.

Regarding `CC(C)CC(=O)OC[C@H]1O[C@@](COC(=O)CC(C)C)(O[C@@H]2O[C@H](CO)[C@@H](O)[C@H](O)[C@H]2OC(=O)CC(C)C)[C@@H](OC(=O)CC(C)C)[C@@H]1O.CC[C@@H](C)C(=O)OC[C@@]1(O[C@@H]2O[C@H](CO)[C@@H](O)[C@H](O)[C@H]2OC(=O)CC(C)C)O[C@H](COC(=O)CC(C)C)[C@@H](O)[C@@H]1OC(=O)CC(C)C`, the Inhibition came to 17% in experiment [1]; 20% in experiment [2]; 19% in experiment [3]; 23% in experiment [4]; 32% in experiment [5]; 33% in experiment [6].

In the case of `CC(C)CC(=O)OC[C@H]1O[C@@](COC(=O)C(C)C)(O[C@@H]2O[C@H](CO)[C@@H](O)[C@H](O)[C@H]2OC(=O)CC(C)C)[C@@H](OC(=O)CC(C)C)[C@@H]1OC(=O)CC(C)C.CC(C)CC(=O)OC[C@H]1O[C@@](COC(=O)CC(C)C)(O[C@@H]2O[C@H](CO)[C@@H](O)[C@H](O)[C@H]2OC(=O)CC(C)C)[C@@H](OC(=O)CC(C)C)[C@@H]1OC(=O)C(C)C.CC[C@@H](C)C(=O)OC[C@@]1(O[C@@H]2O[C@H](CO)[C@@H](O)[C@H](O)[C@H]2OC(=O)CC(C)C)O[C@H](COC(=O)CC(C)C)[C@@H](OC(=O)C(C)C)[C@@H]1OC(=O)CC(C)C.CC[C@@H](C)C(=O)O[C@@H]1[C@@H](COC(=O)CC(C)C)O[C@@](COC(=O)C(C)C)(O[C@@H]2O[C@H](CO)[C@@H](O)[C@H](O)[C@H]2OC(=O)CC(C)C)[C@H]1OC(=O)CC(C)C`, the Inhibition is listed as 6% in experiment [1]; 94% in experiment [2]; 13% in experiment [3]; 38% in experiment [4]; 83% in experiment [5]; 96% in experiment [6].

Regarding `CC(C)CC(=O)OC[C@H]1O[C@@](COC(=O)CC(C)C)(O[C@H]2O[C@H](CO)[C@@H](O)[C@H](O)[C@H]2OC(=O)CC(C)C)[C@@H](OC(=O)CC(C)C)[C@@H]1OC(=O)CC(C)C.CC[C@@H](C)C(=O)OC[C@@]1(O[C@H]2O[C@H](CO)[C@@H](O)[C@H](O)[C@H]2OC(=O)CC(C)C)O[C@H](COC(=O)CC(C)C)[C@@H](OC(=O)CC(C)C)[C@@H]1OC(=O)CC(C)C.CC[C@@H](C)C(=O)O[C@@H]1[C@@H](COC(=O)CC(C)C)O[C@@](COC(=O)CC(C)C)(O[C@H]2O[C@H](CO)[C@@H](O)[C@H](O)[C@H]2OC(=O)CC(C)C)[C@H]1OC(=O)CC(C)C`, the Inhibition in experiment [1] worked out at 11%; in experiment [2], 95%; in experiment [3], 14%; in experiment [4], 57%; in experiment [5] it was 86%; in experiment [6], 96%.
